{"source": "patent US6790824B1", "about": "“Cytokines having neurotrophic activity” (Biopharm Gesellschaft zur biotechnologischen Entwicklung …, priority 1997, dated 2004)", "format_in_all_cases": "cell-based", "key": {"[1]": {"system": "chick ciliary ganglionic (CG) neurons", "test": "Survival of embryonic chick ciliary ganglionic (CG) neurons, 24 h, counting of surviving neurons", "details": "for relative potency of TGF-β isoforms in the synergism with GDNF: not shown; for CG neuron survival with further addition of TGF-β: TGF-β 2.5 ng/ml, CNTF non-saturating, OSM, LIF, IL-6 at 10 ng/ml; for support of CG neuron survival by the single cytokine: at 10 ng/ml, without TGF-β", "description": "(§1) Embryonic chick ciliary (CG), dorsal root (DRG), and sympathetic (SG) ganglia at embryonic day(s) (E) 8, 10, and 12, were dissected, freed from nerve roots and connective tissue and collected in CME. Ganglia were incubated in trypsin (ICN), washed and dissociated by trituration using fire-polished Pasteur pipettes. Cultures were set up in 96-well microtiter plates (Costar, A/2), precoated with poly-L-ornithine and laminin at a density of 1,200-1,500 cells/well in DMEM supplemented with N1 additives, 0.25% BSA, and 0.1% PSN (DME/N1) and incubated at 37° C. in a 5% CO2 incubator.\n(§2) At appropriate times (CG: 24 h, DRG: 48 h, SG: 72 h) cultures were fixed by addition of 2.5% glutardialdehyde in phosphate buffered saline (PBS). Numbers of surviving neurons were determined by direct counting of 30% of the surface area using phase contrast microscopy.\nPhosphatidylinositol-specific phospholipase C (PIPLC) is an enzyme that specifically cleaves glycosyl-phosphatidylinositol (GPI) linkages. Embryonic chick ciliary ganglionic neurons (E8) were isolated and seeded as described before. Neurons were incubated for 1 h at 37° C. with 1) 100 mU PIPLC or II) 100 mU PIPLC+2 ng/ml TGFβ or III) without enzyme and then growth factors were added. The number of surviving neurons was determined 24 h later."}, "[2]": {"system": "embryonic chicken dorsal root ganglia (DRG) neurons", "test": "Survival of dissociated embryonic chick dorsal root ganglia (DRG) neurons, 48 h, counting of surviving neurons", "details": "for effect on DRG neuron survival when added together with GDF-5: factor at saturating concentration plus GDF-5 20 ng/ml, E8, 48 h", "description": "Dissociated cultures of embryonic chicken dorsal root ganglia (DRG) were generated as described in details by Krieglstein and Unsicker (Neurochem. Res., 21(7) (1996) 843-850). Briefly, DRGs from white Leghorn chick embryos (day 8) were dissected in Ca^2+-Mg^2+ free Hanks' balanced salt solution. After incubation in 0.08% trypsin for 15 min ganglia were dissociated by trituration. Cells were seeded in polyomithin-laminin coated 96-well microtiter plates (A/2 Costar) at a density of 1,200 cells/well. Growth factors were applied at the time of plating in a final volume of […] Dulbecco's Modified Eagle's Medium supplemented with 0.25% bovine serum albumin, N1 additives and 100 U/ml penicillin. As a positive control, nerve growth factor (NGF) was used at the saturating concentration of 5 ng/ml. After 48 h of incubation at 37° C. in a humidified atmosphere containing 5% CO2, cultures were fixed with 2.5% glutaraldehyde. Neuronal cells were identified by their phase-bright and neurite-bearing morphologies and counted within 30% of the total surface area using phase contrast microscopy. In the first set of experiments we tested the survival promoting effect of several growth factors of the bone morphogenetic protein family.\nas §1, §2\nDissociated cultures of embryonic chicken dorsal root ganglia (DRGs) were generated as described in details by Krieglstein and Unsicker (Dev. Brain. Rees. 93 (1996) 10-17). Briefly, DRGs were dissected in Ca^2+-Mg^2+ free Hank's balanced salt solution (CMF). After incubation in 0.08% trypsin (BioWhittaker) for 15 min, ganglia were dissociated by gentle trituration using fire-polished Pasteur pipettes. Cells in suspension (neuron/non-neuron ratio 1:2) were seeded in polyomithin-laminin coated 96-well microtiter plates (A/2 Costar) at a density of 1,200 cells/well. Growth factors were applied at the time of plating in a final volume of 50 μl Dulbecco's Modified Eagle's Medium supplemented with 0.25% bovine serum albumin, N1 additives (Bottenstein et al., Exp. Cell Res. 125 (1980) 183-190) and 100 U/ml penicillin. As a positive control, nerve growth factor (NGF) was used at the saturating concentration of 10 ng/ml. After 48 h of incubation at 37° C. in a humidified atmosphere containing 5% CO2, cultures were fixed with 2.5% glutaraldehyde in phosphate buffered saline (PBS). Neuronal cells were identified by their phase-bright and neurite-bearing morphologies and counted within 30% of the total surface area using phase contrast microscopy. All experiments were performed in at least triplicate in two independent experiments. Data are presented as mean±SEM. Statistical comparisons were made with student's double t-test, ANOVA and MicrocalOrigin software. Differences were considered statistically significant at *P<0.05, **P<0.01, **P<0.001."}, "[3]": {"system": "chick sympathetic ganglionic (SG) neurons", "test": "Survival of embryonic chick sympathetic ganglionic (SG) neurons, 72 h, counting of surviving neurons", "details": "E8, serum-free, factor added by itself", "description": "as §1, §2"}, "[4]": {"system": "dopaminergic neurons in the ventral midbrain (mesencephalic cultures E14/DIV8)", "test": "Survival of TH-immunoreactive neurons in mesencephalic cultures (E14/DIV8) treated with FGF-2", "details": "FGF-2 10 ng/ml, 8 days in culture", "description": "FIG. 12 depicts the ffect of neutralizing endogenous TGF-β in mesencephalic neuron cul-tures. Numbers of surviving TH-immunoreactive neurons of mesencephalic cultures (E14/DIV8) after 8 days in culture treated with FGF-2 (10 ng/ml), medium only (control), in presence or absence of neutralizing antibodies to TGF-β1/-β2/-β3 (10 μg/ml). Data are given as mean±SEM (n=3), P-values are ***P<0.001 for increased survival as compared with control cultures and +P<0.05 or +++P<0.001 for decreased survival following antibody treatment.\nFibroblast growth factor (FGF)-2 is known to act as a neurotrophic factor for dopaminergic neurons in the ventral midbrain. […] As TGF-β is known to be a product of astroglial cells, it was tested whether TGF-β-neutralizing antibodies can abolish the neurotrophic effect of FGF-2 on cultured neurons derived from the embryonic midbrain floor."}, "[5]": {"system": "rat embryonic mesencephalic dopaminergic neurons (E14)", "test": "Survival of rat embryonic mesencephalic dopaminergic neurons, count of tyrosine hydroxylase (TH) immunoreactive neurons after 8 days", "details": "GDNF 10 ng/ml, TGF-β3 2 ng/ml, 8 days in culture", "description": "FIG. 8 depicts the survival promoting effect of GDNF on rat embryonic mesencephalic dopaminergic neurons (E14) is dependent on the presence of TGF-β. Dissociated cultures were treated with GDNF (10 ng/ml), with GDNF in the presence of anti-TGF-β1, -β2, -β3 (10 μg/ml), with TGF-β3 (2 ng/ml) or without any growth factor added (control) for 8 days in culture. Numbers of dopaminergic neurons were determined by counting the numbers of tyrosine hydroxylase (TH) immunoreactive neurons."}, "[6]": {"details": "PIPLC 0.1 U/ml prior to plating"}}}
{"substance": "Phosphatidylinositol-specific phospholipase C [PIPLC, reference compound]", "values": [{"measurement": "effect of PIPLC pretreatment on the survival promoting effect of CNTF", "setting": "[1]; [6]", "value": "effectively reduced the survival promoting effect of CNTF"}, {"measurement": "effect of PIPLC pretreatment on the survival promoting effect of FGF-2", "setting": "[1]; [6]", "value": "without affecting the survival promoting effect of FGF-2"}, {"measurement": "effect of PIPLC pretreatment on the survival promoting effect of GDNF with TGF-β", "setting": "[1]; [6]", "value": "significantly reduced the survival promoting effect of GDNF in its combination with TGF-β"}, {"measurement": "effect of PIPLC pretreatment in the presence of TGF-β on the survival promoting effect of GDNF", "setting": "[1]; PIPLC pretreatment with 2 ng/ml TGF-β1", "value": "the survival promoting effect of GDNF was maintained"}]}
{"substance": "TGF-β1: isoform of TGF-β", "values": [{"measurement": "DRG neuron survival, single factor in serum-free medium", "setting": "[2]; E8, serum-free, factor added by itself", "value": "virtually no survival promoting effect"}, {"measurement": "effect on DRG neuron survival when added together with GDF-5", "setting": "[2]", "value": "synergistic or additive effects"}, {"measurement": "relative potency of TGF-β isoforms in the synergism with GDNF", "setting": "[1]", "value": "equipotent"}, {"measurement": "SG neuron survival, single factor in serum-free medium", "setting": "[3]", "value": "virtually no survival promoting effect"}]}
{"substance": "TGF-β2: isoform of TGF-β", "values": [{"measurement": "relative potency of TGF-β isoforms in the synergism with GDNF", "setting": "[1]", "value": "equipotent"}]}
{"substance": "TGF-β3: isoform of TGF-β", "values": [{"measurement": "effect on DRG neuron survival when added together with GDF-5", "setting": "[2]", "value": "synergistic or additive effects"}, {"measurement": "relative potency of TGF-β isoforms in the synergism with GDNF", "setting": "[1]", "value": "equipotent"}]}
{"substance": "epidermal growth factor [EGF]", "values": [{"measurement": "effect on DRG neuron survival when added together with GDF-5", "setting": "[2]", "value": "synergistic or additive effects"}]}
{"substance": "fibroblast growth factor-2 [FGF-2]", "values": [{"measurement": "effect on DRG neuron survival when added together with GDF-5", "setting": "[2]", "value": "synergistic or additive effects"}, {"measurement": "increase in survival of the cells compared to the negative control (medium alone)", "setting": "[4]", "value": 1.7, "unit": "fold"}]}
{"substance": "interleukin-6 [IL-6]", "values": [{"measurement": "CG neuron survival with further addition of TGF-β", "setting": "[1]", "value": "did not increase the effects of these cytokines beyond background levels"}, {"measurement": "support of CG neuron survival by the single cytokine", "setting": "[1]", "value": "did not support CG neurons"}]}
{"substance": "leukemia inhibiting factor [LIF]", "values": [{"measurement": "CG neuron survival with further addition of TGF-β", "setting": "[1]", "value": "did not increase the effects of these cytokines beyond background levels"}, {"measurement": "support of CG neuron survival by the single cytokine", "setting": "[1]", "value": "did not support CG neurons"}]}
{"substance": "transforming growth factor beta [TGF-β]", "values": [{"measurement": "EC50 of the synergistic survival effect", "setting": "[1]; factor titrated in combination with 2 ng/ml of the other factor (GDNF/TGF-β), serum-free", "value": 0.06, "unit": "ng/mL"}, {"measurement": "CG neuron survival, single factor in fully-defined medium", "setting": "[1]; serum-free, each at the saturating amount of 2 ng/ml", "value": "only marginal survival promoting effects"}, {"measurement": "survival of dopaminergic neurons relative to untreated control cultures", "setting": "[5]", "value": 200, "unit": "%"}]}
{"substance": "transforming growth factor-a [TGF-α]", "values": [{"measurement": "effect on DRG neuron survival when added together with GDF-5", "setting": "[2]", "value": "synergistic or additive effects"}]}
